Laboratory results: patent US12162888B2, “Carboxamides as ubiquitin-specific protease inhibitors” (Valo Early Discovery, Inc., priority 2018, dated 2024)

Biological target: T1, USP25 (USP25-His6, Boston Biochem E-546) (Homo sapiens, UniProt Q9UHP3)
T1 construct: His6 (C); purchased Boston Biochem E-546
T1 sequence (Q9UHP3 1-1055): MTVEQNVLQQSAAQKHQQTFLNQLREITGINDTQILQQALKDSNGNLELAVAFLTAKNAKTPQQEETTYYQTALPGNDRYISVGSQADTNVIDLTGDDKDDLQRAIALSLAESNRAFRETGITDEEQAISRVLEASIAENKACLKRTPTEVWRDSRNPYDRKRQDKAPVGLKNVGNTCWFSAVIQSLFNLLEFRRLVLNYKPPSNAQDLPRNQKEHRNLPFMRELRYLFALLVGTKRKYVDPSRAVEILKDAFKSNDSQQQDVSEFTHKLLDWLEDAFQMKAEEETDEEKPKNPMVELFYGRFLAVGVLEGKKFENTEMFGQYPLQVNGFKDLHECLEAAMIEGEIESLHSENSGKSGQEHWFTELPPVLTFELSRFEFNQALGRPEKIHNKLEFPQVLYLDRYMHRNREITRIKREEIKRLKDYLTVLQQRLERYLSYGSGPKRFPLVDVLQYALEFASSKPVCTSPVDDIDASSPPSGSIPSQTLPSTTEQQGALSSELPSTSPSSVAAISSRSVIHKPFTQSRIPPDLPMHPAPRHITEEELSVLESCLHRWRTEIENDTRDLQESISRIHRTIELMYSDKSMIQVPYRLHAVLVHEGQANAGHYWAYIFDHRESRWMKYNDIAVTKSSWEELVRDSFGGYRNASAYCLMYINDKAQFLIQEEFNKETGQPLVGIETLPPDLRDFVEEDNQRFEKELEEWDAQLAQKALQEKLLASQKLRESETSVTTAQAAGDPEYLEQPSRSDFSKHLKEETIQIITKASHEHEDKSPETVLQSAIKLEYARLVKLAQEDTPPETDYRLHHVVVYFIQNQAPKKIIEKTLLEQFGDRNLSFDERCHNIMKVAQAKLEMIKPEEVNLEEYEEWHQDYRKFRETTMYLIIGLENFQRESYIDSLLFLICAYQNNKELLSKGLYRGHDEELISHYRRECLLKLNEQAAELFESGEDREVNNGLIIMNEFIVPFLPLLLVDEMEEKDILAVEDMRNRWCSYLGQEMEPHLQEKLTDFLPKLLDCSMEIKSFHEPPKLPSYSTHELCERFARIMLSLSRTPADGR
Assay: Ubiquitin-Rhodamine 110 Assay for USP25 Activity, Example A-3
Format: biochemical
Conditions: Ubiquitin-Rhodamine 110 assay, Example A-3; read-out: USP25 A-3 IC50 range
Description: Example A-3: Biochemical Assay: Ubiquitin-Rhodamine 110 Assay for USP25 Activity
The assay was performed in a final volume of 9 μL in assay buffer containing 20 mM Tris-HCl (pH 8.0, (1M Tris-HCl, pH 8.0 solution; Corning 46-031-CM)), 3 mM BME (2-Mercaptoethanol; Sigma 63689-25ML-F), 0.03% BGG (0.22 μM filtered, Sigma, G7516-25G), and 0.01% Triton X-100 (Sigma, T9284-10L). Nanoliter quantities of 10-point, 3-fold serial dilution in DMSO was pre-dispensed into 1536 assay plates (Corning, #3724BC) for a final test concentration of 25 μM to 1.3 nM, top to lowest dose, respectively. Enzyme USP25, construct USP25-His6, (Boston Biochem E-546). Concentration and incubation times were optimized for the maximal signal-to-background while maintaining initial velocity conditions at a fixed substrate concentration. The final concentration of the enzyme in the assay was […]. Final substrate (Ub-Rh110; Ubiquitin-Rhodamine 110, R&D Systems #U-555) concentration was 25 nM with [Ub-Rh110]<<Km. 3 μL of 2× enzyme was added to assay plates (pre-stamped with compound) preincubated with […] for 30 minutes and then 3 μL of 2× Ub-Rh110 was added to assay plates. Plates were incubated for 45 minutes at room temperature before addition of 3 μL of stop solution (final concentration of 10 mM citric acid (Sigma, 251275-500G)). Fluorescence was read on the Envision (Excitation at 485 nm and Emission at 535 nm; Perkin Elmer) or on the PheraSTAR (Excitation at 485 nm and Emission at 535 nm; BMG Labtech).
For assay formats Example A-1(a), A-1(b), and A-2, data were reported as percent inhibition compared with control wells based on the following equation: % inh=1−((FLU−AveLow)/(AveHigh−AveLow)) where FLU=measured Fluorescence, AveLow=average Fluorescence of no enzyme control (n=16), and AveHighh=average Fluorescence of DMSO control (n=16). IC50 values were determined by curve fitting of the standard 4 parameter logistic fitting algorithm included in the Activity Base software package: IDBS XE Designer Model 205. Data is fitted using the Levenburg Marquardt algorithm.

`Cc1ccc2c(N)c(C(=O)N[C@H]3CCc4nc(N5C[C@@H](N)[C@H](C(F)F)C5)ncc4C3)sc2n1` [Example 381, 3-amino-N-[(6S)-2-[(3S,4R)-3-amino-4-(difluoromethyl)pyrrolidin-1-yl]-5,6,7,8-tetrahydroquinazolin-6-yl]-6-methylthieno[2,3-b]pyridine-2-carboxamide] and `Cc1ccc2c(N)c(C(=O)N[C@@H]3CCc4nc(N5C[C@H](C(F)F)[C@@H](N)C5)ncc4C3)sc2n1` [Example 383, 3-amino-N-[(6R)-2-[(3R,4S)-3-amino-4-(difluoromethyl)pyrrolidin-1-yl]-5,6,7,8-tetrahydroquinazolin-6-yl]-6-methylthieno[2,3-b]pyridine-2-carboxamide] cannot be ordered by IC50: greater than 2000 nM for the first, greater than 2000 nM for the second.

Compared with `CO[C@@]12CCN[C@H]1CN(c1ccc3c(n1)CC[C@H](NC(=O)c1sc4nc(C)ccc4c1N)C3)C2` [Example 434, N-[(6S)-2-[(3aR,6aS)-3a-methoxy-octahydropyrrolo[2,3-c]pyrrol-5-yl]-5,6,7,8-tetrahydroquinolin-6-yl]-3-amino-6-methylthieno[2,3-b]pyridine-2-carboxamide], `Cc1ccc2c(N)c(C(=O)N[C@H]3CCc4nc(N5C[C@H]6CCN[C@@H](C5)C6(F)F)ccc4C3)sc2n1` [Example 368, 3-amino-N-[(6S)-2-[(1S,5R)-9,9-difluoro-2,7-diazabicyclo[3.3.1]nonan-7-yl]-5,6,7,8-tetrahydroquinolin-6-yl]-6-methylthieno[2,3-b]pyridine-2-carboxamide] is lower in IC50: greater than 2000 nM for the first, 50 to 200 nM for the second.

First: COC[C@@H]1[C@@H](N)CCN1c1ccc2c(n1)CC[C@H](NC(=O)c1sc3nc(C)ccc3c1N)C2 [Example 420, 3-amino-N-[(6S)-2-[(2S,3S)-3-amino-2-(methoxymethyl)pyrrolidin-1-yl]-5,6,7,8-tetrahydroquinolin-6-yl]-6-methylthieno[2,3-b]pyridine-2-carboxamide]
Second: Cc1ccc2c(N)c(C(=O)N[C@H]3CCc4nc(N5C[C@@H](CF)[C@H](N)C5)ccc4C3)sc2n1 [Example 385, 3-amino-N-[(6S)-2-[(3S,4R)-3-amino-4-(fluoromethyl)pyrrolidin-1-yl]-5,6,7,8-tetrahydroquinolin-6-yl]-6-methylthieno[2,3-b]pyridine-2-carboxamide]
The IC50 of the first is lower: 50 to 200 nM for the first, greater than 2000 nM for the second.

`Cc1ccc2c(N)c(C(=O)N[C@H]3CCc4nc(N5C[C@H]6COC[C@@H](C5)[C@@H]6N)ccc4C3)sc2n1` [Example 397] and `Cc1ccc2c(N)c(C(=O)N[C@H]3CCc4nc(N5C[C@H]6COC[C@@]6(N)C5)ccc4C3)sc2n1` [Example 395, N-[(6S)-2-[(3aS,6aR)-3a-amino-hexahydro-1H-furo[3,4-c]pyrrol-5-yl]-5,6,7,8-tetrahydroquinolin-6-yl]-3-amino-6-methylthieno[2,3-b]pyridine-2-carboxamide] fall in the same range of IC50: 200 to 2000 nM for the first, 200 to 2000 nM for the second.

`Cc1ccc2c(N)c(C(=O)N[C@H]3CCc4nc(N5CCN[C@H](C(F)F)C5)ccc4C3)sc2n1` [Example 374, 3-amino-N-[(6S)-2-[(3S)-3-(difluoromethyl)piperazin-1-yl]-5,6,7,8-tetrahydroquinolin-6-yl]-6-methylthieno[2,3-b]pyridine-2-carboxamide] and `CN[C@H]1CN(c2ccc3c(n2)CC[C@H](NC(=O)c2sc4nc(C)ccc4c2N)C3)C[C@@H]1C(F)F` [Example 376, 3-amino-N-[(6S)-2-[(3S,4R)-3-(difluoromethyl)-4-(methylamino)pyrrolidin-1-yl]-5,6,7,8-tetrahydroquinolin-6-yl]-6-methylthieno[2,3-b]pyridine-2-carboxamide] cannot be ordered by IC50: greater than 2000 nM for the first, greater than 2000 nM for the second.

`CCn1ccc2cc(C(=O)N[C@H]3CCc4nc(N5C[C@H](N)[C@@H](C(F)(F)F)C5)ccc4C3)cnc21` [Example 421, N-[(6S)-2-[(3R,4S)-3-amino-4-(trifluoromethyl)pyrrolidin-1-yl]-5,6,7,8-tetrahydroquinolin-6-yl]-1-ethyl-1H-pyrrolo[2,3-b]pyridine-5-carboxamide] and `CCn1ccc2cc(C(=O)N[C@H]3CCc4nc(N5C[C@H](C(F)F)[C@@H](N)C5)ccc4C3)cnc21` [Example 370, N-[(6S)-2-[(3R,4S)-3-amino-4-(difluoromethyl)pyrrolidin-1-yl]-5,6,7,8-tetrahydroquinolin-6-yl]-1-ethyl-1H-pyrrolo[2,3-b]pyridine-5-carboxamide] fall in the same range of IC50: 200 to 2000 nM for the first, 200 to 2000 nM for the second.
